Values quoted from earlier work as cited in patent US10296863B2, “Wireless sensor devices for post-harvest crop quality and pest management” (priority 2017, dated 2019).
Like-named read-outs stand apart in the source and are kept apart here.

How the values were obtained:
[1] = test system: tobacco moth and susceptible cigarette beetle
[2] = test system: resistant cigarette beetle
[3] = tobacco temperature 16-20 °C (61-68 °F), 300 ppm phosphine at the bale/case centre

P [phosphine]
Minimum Exposure Time to achieve 100% control [1, 3]: 6 days | Minimum Exposure Time to achieve 100% control ([1]; tobacco temperature >20 °C (>68 °F), 200 ppm phosphine at the bale/case centre): 4 days | Minimum Exposure Time to achieve 100% control [2, 3]: 12 days | Minimum Exposure Time to achieve 100% control ([2]; tobacco temperature 20-25 °C (68-77 °F), 300 ppm phosphine at the bale/case centre): 12 days | Minimum Exposure Time to achieve 100% control ([2]; tobacco temperature 20-25 °C (68-77 °F), 700 ppm phosphine at the bale/case centre): 10 days | Minimum Exposure Time to achieve 100% control ([2]; tobacco temperature >25 °C (>77 °F), 300 ppm phosphine at the bale/case centre): 12 days | Minimum Exposure Time to achieve 100% control ([2]; tobacco temperature >25 °C (>77 °F), 600 ppm phosphine at the bale/case centre): 6 days
